# Measured values from patent US9241951B2, “Of gastrointestinal health, immunity and performance by dietary intervention” (BIOATLANTIS LTD, priority 2009, dated 2016).
# Legend:
# [1] = VFA analysis and digesta pH in ileum, caecum and colon, Example 5; assay type: in vivo, pig; settings: for total VFAs: increasing LAM
# Text: 21 pigs with an initial weight of 17.9±2.2 Kg were assigned to one of the 3 dietary treatments: (T1) control; (T2) basal diet+300 ppm LAM; (T3) basal diet+600 ppm LAM. Experimental feeding continued for 21 days ad libitum. Diets were formulated to have similar digestible energy (DE) (14.4 MJ/Kg) and ileal digestible lysine (12.5 g/Kg). Post-slaughter, digestive tract was removed by dissection and digesta was removed from the ileum. Each digesta sample was serially diluted in maximum recovery diluent (MRD, Oxoid, Basingstoke, UK), and spread plated onto selective agars. Bifidobacteria, Lactobacilli and Enterobacteria species were isolated according to the methods described by Pierce et al. (2005). Digesta samples used to measure VFA concentration were collected from the caecum and the same location in the ileum and colon. VFA analysis was performed using gas liquid chromatography (GLC) according to the method described by Pierce et al., (2005).
# [2] = Pig performance post weaning with LAM and FUC, Example 4; assay type: in vivo
# Text: One hundred and ninety two piglets were weaned at twenty four days of age, with an initial live weight of 6.4±0.785 Kg and assigned to one of four dietary treatments or 21 days post weaning. The dietary treatments consisted of (T1) basal diet, (T2) basal diet with 300 ppm LAM, (T3) basal diet with 236 ppm FUC, (T4) Basal diet with 300 ppm LAM and 236 ppm FUC. Diets were formulated to have identical concentrations of digestible energy (DE) (16 MJ/Kg) and ileal digestible lysine (14 g/Kg). All amino acid requirements were met relative to lysine (Close, 1994). Chromium III oxide was added to the diets for determination of nutrient digestibility. The LAM and FUC were derived from Laminaria hyperborea.
# Piglets were housed in groups of 4 and offered feed twice daily. Water was supplied ad-libitum. Any pig displaying symptoms of illness was treated appropriately and recorded. Pigs were weighed on day 0 (day of weaning), 7, 14 and 21. Feed intake was monitored weekly. Fresh faecal samples were taken on day 10 and were analysed for E. coli and Lactobacilli concentrations. Faeces samples were collected from each pen on day 12-17 and were retained for chemical analysis. Fresh faecal samples were removed on day 14 and were frozen and retained for volatile fatty acid analysis. Fresh faecal samples were taken on day 17 for pH determination.
substance,measurement,setting,value
laminarin,digesta pH,[1]; any intestinal region,no significant alteration
same,total VFAs,[1]; caecum,significant increase
same,total VFAs,[1]; ileum or colon,no significant effects
same,Gain: Feed ratio,"[2]; days 7-14, LAM supplemented diets (300 ppm) v unsupplemented (0.569)",0.763
same,ADG,"[2]; days 7-14 post weaning, LAM supplemented diets (300 ppm) v diets with no LAM (0.266)",0.344
same,ADG,"[2]; entire experimental period, LAM supplemented diets (300 ppm) v no LAM (0.232)",0.324
same,Gain: Feed ratio,"[2]; entire experimental period, LAM supplemented diets (300 ppm) v unsupplemented (0.646)",0.703
same,average daily feed intake,"[2]; weaned pigs, 21 days, LAM 300 ppm, FUC 236 ppm",no effect
